In article PMC11956017, “Design of Benzyl-triazolopyrimidine-Based NADPH Oxidase Inhibitors Leads to the Discovery of a Potent Dual Covalent NOX2/MAOB Inhibitor” (Journal of Medicinal Chemistry, 2025):

How the values were obtained:
NOX2 [1] = target: T1, NOX2 (Homo sapiens, UniProt P04839); experiment: NOX2 inhibition upon preactivation with cytosolic partners, washout, cytochrome c reduction; format: biochemical; design: NOX2 was expressed as native protein in X-CGD PLB-985 cells transduced with the RD114 pseudotyped MFGS-NOX2 vector; expressed in transfected cells; host or cells: X-CGD PLB-985 cells transduced with MFGS-NOX2; isolated membranes; Cytosolic proteins made in E. coli; conditions: 1 mM compound, 60 min, with or without p47phox/p67phox/Rac1, washout, fresh activators
Experimental: More in detail, two different mixtures were prepared simultaneously: a “nonpreactivated NOX2” mixture in the absence of cytosolic partners and a “preactivated NOX2” mixture in the presence of cytosolic partners. NOX2-containing membranes (3.9 mg/mL) were added to a sodium phosphate buffer (65 mM, pH 7.0), 50 μM FAD, and 130 μM LiDS, in the presence or absence of 160 nM p67^phox, p47^phox, and Rac1 Q61L in a final volume of 20 μL. Both mixes were incubated with DMSO (vehicle) or 1 mM of the tested compound for 60 min at 25 °C. The mixtures were then centrifuged (20,000g for 10 min) at 4 °C to gently remove the excess of the inhibitor and, if present, of the activators. The supernatants were discarded to eliminate the excess of the nonbound compound, and the pellets were resuspended in the same volume of the fresh buffer. Subsequently, the resuspended pellets were loaded into a spectrophotometric cuvette at a final concentration of 0.39 mg/mL and incubated with fresh cytosolic activators (160 nM), LiDS (130 μM), and cytochrome c (200 μM) for 10 min at 25 °C. […] The reaction was then initiated with 240 μM NADPH and monitored at 550 nm with a Cary 100 UV–vis spectrophotometer (Varian).

NOX2 [2] = target: T1, NOX2; experiment: Human NOX2 isolated membranes, cytochrome c assay; format: biochemical; design: NOX2 was expressed as native protein in X-CGD PLB-985 cells transduced with the RD114 pseudotyped MFGS-NOX2 vector; expressed in transfected cells; host or cells: X-CGD PLB-985 cells transduced with MFGS-NOX2; isolated membranes; Cytosolic proteins made in E. coli; conditions: membrane-embedded NOX2; n = 1; read-out: IC50 NOX2 measured with the cytochrome c assay
Experimental: The strong activity of NOX2 enabled the use of the peroxide-independent MCLA and cytochrome c assays that probe superoxide formation. IC50 determinations were performed as described, with the same aforementioned modifications for covalent inhibition. Briefly, 20 μg of NOX2-p22^phox membranes was added to a reaction mix with a 65 mM sodium phosphate buffer (pH 7.0), 0.5 μM FAD, 130 μM LiDS, 160 nM p67^phox, p47^phox, Rac1 Q61L, and 1 μM MCLA or 200 μM bovine cytochrome c. The estimated final protein concentration based on the heme’s absorbance was 60 nM. Compounds were incubated for 1 h at 25 °C, at varying concentrations. The reaction started by adding 240 μM NADPH, and measurements were taken by using a GloMax plate reader (Promega; MCLA) or a Cary 100 UV–vis spectrophotometer (Varian; cytochrome c).

BV2 cells = experiment: qRT-PCR of iNOS, IL-1β and IL-6 transcripts in BV2 cells; format: cell-based, murine
Experimental: BV2 murine microglial cells were cultured in DMEM supplemented with 10% heat-inactivated FBS, 100 IU/mL penicillin G, […] streptomycin, and […] amphotericin B and grown at 37 °C in 5% CO2 and a humidified atmosphere. […]
BV2 cells were lysed in a Trizol reagent for isolation of RNA. A reverse transcription reaction was performed in a thermocycler (MJMini personal thermal cycler; Biorad) using an IScript Reverse Transcription Supermix (Biorad) according to the manufacturer’s protocol, under the following conditions: incubation at 25 ° C for 5 min, reverse transcription at 42 ° C for 30 min, and inactivation at 85 ° C for 5 min. Real-time PCR (rtPCR) was carried out in an I-Cycler IQ Multicolor rtPCR detection system (Biorad) using a SsoFast EvaGreen Supermix (Biorad) according to the manufacturer’s instructions. The PCR protocol consisted of 40 cycles of denaturation at 95 ° C for 30 s and annealing/extension at 60 ° C for 30 s. For quantification analysis, the comparative threshold cycle (Ct) method was used. The Ct values from each gene were normalized to the Ct value of GAPDH in the same RNA samples. Relative quantification was performed using the 2^–ΔΔCt method (Schmittgen and Livak, 2008) and expressed as a fold change in arbitrary values. Primers used are as follows: • iNOS fw: […]; rev: […]. • IL-1β fw: […]; rev: […]. • IL-6 fw: […]; rev: […].

human MAOB = target: T2, human MAOB (Homo sapiens, UniProt P27338); experiment: Spectrophotometric monitoring of MAOB flavin covalent modification; format: binding
T2 construct: made in house; host or cells: Pichia pastoris
T2 sequence (P27338 1-520): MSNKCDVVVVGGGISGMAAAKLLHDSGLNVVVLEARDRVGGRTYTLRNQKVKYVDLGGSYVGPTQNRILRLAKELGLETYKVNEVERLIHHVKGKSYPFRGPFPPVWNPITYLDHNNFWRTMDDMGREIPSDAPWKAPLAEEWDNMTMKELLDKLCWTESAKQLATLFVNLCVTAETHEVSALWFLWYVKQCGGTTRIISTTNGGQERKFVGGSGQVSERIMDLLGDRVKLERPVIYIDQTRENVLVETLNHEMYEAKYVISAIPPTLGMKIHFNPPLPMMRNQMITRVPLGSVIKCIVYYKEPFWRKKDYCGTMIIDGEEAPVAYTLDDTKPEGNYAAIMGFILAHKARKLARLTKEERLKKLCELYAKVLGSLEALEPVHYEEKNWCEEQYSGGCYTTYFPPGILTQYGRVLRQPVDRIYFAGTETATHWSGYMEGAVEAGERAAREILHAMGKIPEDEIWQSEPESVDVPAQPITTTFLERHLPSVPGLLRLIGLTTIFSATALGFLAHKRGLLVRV
Experimental: IC50 values on human MAOA and human MAOB were determined using the Amplex Red/horseradish peroxidase coupled assay. […] Measurements were performed using a ClarioStar plate reader (excitation 572 nm and emission 583 nm) (BMG Labtech). IC50 values were obtained by fitting the percentage of inhibition versus log(inhibitor concentration) using GraphPad software 7.0. The covalent modification of the flavin upon the reaction with the propargylamine-containing inhibitors was monitored spectrophotometrically using a diode array UV/visible spectrophotometer (Agilent Technologies). […] The cofactor covalent modification was monitored over time following the shift of the enzyme-bound flavin (peaks at 370 and 456 nm) to 410 nm (ε410 = 23,500 M^–1 cm^–1) (Figure S10).

[3] = 10 μM, LPS/IFN-γ, 48 h compound treatment

retention of inhibitor by NOX2 after washout, resting vs activated state (NOX2 [1]): retained only by the activated | IC50 (NOX2 [2]): 770 nM | MAOB cofactor modified at the final time point (human MAOB; after 30 min of incubation): 18.4 µM | calculated inhibited fraction of MAOB (human MAOB; after 30 min of incubation): 91.8%
Structure (SMILES): C#CCN(C)Cc1ccc(Cn2nnc3c(Sc4nc5ccccc5o4)ncnc32)cc1 [Compound 9a, N-(4-((7-(Benzo[d]oxazol-2-ylthio)-3H-[1,2,3]triazolo[4,5-d]pyrimidin-3-yl)methyl)benzyl)-N-methylprop-2-yn-1-amine]
decrease in IL-1β mRNA level (BV2 cells; [3]): 4 fold | decrease in IL-6 mRNA level (BV2 cells; [3]): 4 fold | decrease in iNOS mRNA level (BV2 cells; [3]): over 10 fold | effects on iNOS, IL-1β and IL-6 mRNA without inhibitor pretreatment (BV2 cells; cells pre-stimulated with LPS/IFN-γ for 24h, then 10 µM compound for 24 h): negligible | covalent flavin adduct with MAOB (absorbance shift to 410 nm) (human MAOB; 5-fold molar excess over 20 μM protein): formation of a covalent N-methyl-N-propargylamine-flavin adduct
